Tests used:
Zika virus = assay: Functional CPE-based assay to measure dose dependent changes in antiviral-drug inhibitory efficacy against Zika virus MR766 in Vero E6 miRFP670 cells (cotreated with P-gp inhibitor, CP100356). Cells are treated with antiviral candidates that are serially diluted. EC50 is reported via analysis of MTS assay as a readout of CPE. The assay has been performed by KU Leuven.; type: organism-based, Chlorocebus sabaeus, Vero C1008; conditions: Zika virus; for EC90: P-gp concentration 500 nM, P-gp inhibitor CP100356
dengue virus type 2 = assay: Functional assay to measure dose dependent changes in antiviral-drug inhibitory efficacy against Dengue virus type 2 New Guinea C in Vero E6 miRFP670 cells (cotreated with P-gp inhibitor, CP100356). Cells are treated with antiviral candidates that are serially diluted, following infection, cells are fixed. EC50 is reported via analysis of fluorescence intensity using high-content imager. The …; type: organism-based, Chlorocebus sabaeus, Vero C1008; conditions: Dengue virus; for EC90: P-gp concentration 500 nM, P-gp inhibitor CP100356

COc1cc(Br)cc(C(=O)Nc2ccc3c(c2)CNC3)c1
EC50 (Zika virus; Vero C1008): 12.8 µM | EC90 (Zika virus; Vero C1008, Baseline response 0 %, EC90 CI (lower) 14.493 uM, EC90 CI (upper) 28.879 uM, Hill slope 4.703, Maximum measured 104.946 %, Maximum response 100 %, Minimum measured 1.527 %, R squared 0.964): 20.5 µM | EC50 (dengue virus type 2; Vero C1008): > 25 µM | EC90 (dengue virus type 2; Vero C1008, Baseline response 0 %, Hill slope -0.242, Maximum measured 88.855 %, Maximum response 100 %, Minimum measured 49.171 %, R squared 0.071): > 25 µM

O=C(Nc1ccc2c(c1)CNC2)c1cccc2[nH]c(C(F)(F)F)cc12
EC50 (Zika virus; Vero C1008): 0.857 µM | EC90 (Zika virus; Vero C1008, Baseline response 0 %, EC90 CI (lower) 0.735 uM, EC90 CI (upper) 5.08 uM, Hill slope 2.705, Maximum measured 139.12 %, Maximum response 100 %, Minimum measured 13.658 %, R squared 0.773): 1.93 µM | EC50 (dengue virus type 2; Vero C1008): 11.6 µM | EC90 (dengue virus type 2; Vero C1008, Baseline response 0 %, Hill slope -1.333, Maximum measured 97.959 %, Maximum response 100 %, Minimum measured 43.335 %, R squared 0.826): > 12.5 µM

O=C(Nc1ccc2c(c1)CNC2)c1cc(Cl)cc2[nH]c(-c3ccnn3C3CC3)nc12
EC50 (Zika virus; Vero C1008): > 0.781 µM | EC90 (Zika virus; Vero C1008, Baseline response 0 %, Hill slope 2.383, Maximum measured 38.126 %, Maximum response 100 %, Minimum measured 10.566 %, R squared 0.88): > 0.781 µM | EC50 (dengue virus type 2; Vero C1008): > 6.25 µM | EC90 (dengue virus type 2; Vero C1008, Baseline response 0 %, Hill slope 11.741, Maximum measured 109.967 %, Maximum response 100 %, Minimum measured 87.357 %, R squared 0.219): > 6.25 µM

O=C(NCCCn1ccnc1)[C@H](Nc1ccc2c(c1)CNC2)c1cc(Cl)cc(C2CC2)c1
EC50 (Zika virus; Vero C1008): > 50 µM | EC90 (Zika virus; Vero C1008, Maximum measured 4.008 %, Minimum measured -17.269 %): > 50 µM | EC50 (dengue virus type 2; Vero C1008): > 50 µM | EC90 (dengue virus type 2; Vero C1008, Baseline response 0 %, Hill slope 0.691, Maximum measured 120.843 %, Maximum response 100 %, Minimum measured 86.475 %, R squared 0.179): > 50 µM

O=C(Nc1ccc2c(c1)CNC2)c1cc(Cl)cc2[nH]c(-c3ccc(F)cc3O)nc12
EC50 (Zika virus; Vero C1008): > 0.781 µM | EC90 (Zika virus; Vero C1008, Baseline response 0 %, Hill slope 0.819, Maximum measured -0.871 %, Maximum response 100 %, Minimum measured -1.788 %, R squared 0.426): > 0.781 µM | EC50 (dengue virus type 2; Vero C1008): > 1.56 µM | EC90 (dengue virus type 2; Vero C1008, Maximum measured 186.201 %, Minimum measured 124.759 %): > 1.56 µM

Cn1cc2c(C(=O)Nc3ccc4c(c3)CNC4)cc(F)cc2n1
EC50 (Zika virus; Vero C1008): 3.02 µM | EC90 (Zika virus; Vero C1008, Baseline response 0 %, EC90 CI (lower) 4.41 uM, EC90 CI (upper) 19.306 uM, Hill slope 1.966, Maximum measured 124.261 %, Maximum response 100 %, Minimum measured 18.013 %, R squared 0.888): 9.23 µM | EC50 (dengue virus type 2; Vero C1008): > 50 µM | EC90 (dengue virus type 2; Vero C1008, Baseline response 0 %, Hill slope 0.83, Maximum measured 109.464 %, Maximum response 100 %, Minimum measured 93.167 %, R squared 0.272): > 50 µM

O=C(Nc1ccc2c(c1)CNC2)c1cc(Cl)cc2cc[nH]c12
EC50 (Zika virus; Vero C1008): 1 µM | EC90 (Zika virus; Vero C1008, Baseline response 0 %, EC90 CI (lower) 0.797 uM, EC90 CI (upper) 4.564 uM, Hill slope 3.408, Maximum measured 129.449 %, Maximum response 100 %, Minimum measured 8.447 %, R squared 0.85): 1.91 µM | EC50 (dengue virus type 2; Vero C1008): 2.21 µM | EC90 (dengue virus type 2; Vero C1008, Baseline response 0 %, Hill slope -2.776, Maximum measured 94.432 %, Maximum response 100 %, Minimum measured 26.957 %, R squared 0.875): > 3.12 µM

CC1=C(c2cc(NC(=O)c3cc(Cl)cc4[nH]ncc34)cc3c2CNC3)CCC1=O
EC50 (Zika virus; Vero C1008): > 50 µM | EC90 (Zika virus; Vero C1008, Baseline response 0 %, Hill slope 0.456, Maximum measured 3.948 %, Maximum response 100 %, Minimum measured -0.924 %, R squared 0.076): > 50 µM | EC50 (dengue virus type 2; Vero C1008): > 50 µM | EC90 (dengue virus type 2; Vero C1008, Maximum measured 165.308 %, Minimum measured 53.221 %): > 50 µM

Cn1c(=O)[nH]c2c(C(=O)Nc3ccc4c(c3)CNC4)cc(Br)cc21
EC50 (Zika virus; Vero C1008): 0.724 µM | EC90 (Zika virus; Vero C1008, Baseline response 0 %, EC90 CI (lower) 0.762 uM, EC90 CI (upper) 6.925 uM, Hill slope 1.902, Maximum measured 109.696 %, Maximum response 100 %, Minimum measured 27.933 %, R squared 0.521): 2.3 µM | EC50 (dengue virus type 2; Vero C1008): > 50 µM | EC90 (dengue virus type 2; Vero C1008, Baseline response 0 %, Hill slope -2.293, Maximum measured 105.522 %, Maximum response 100 %, Minimum measured 55.095 %, R squared 0.397): > 50 µM

O=C(Nc1cc2c(c(C3=CC[C@H](O)CC3)c1)CNC2)c1cc(Cl)cc2[nH]ncc12
EC50 (Zika virus; Vero C1008): 46.6 µM | EC90 (Zika virus; Vero C1008, Baseline response 0 %, Hill slope 3.698, Maximum measured 56.446 %, Maximum response 100 %, Minimum measured 0.896 %, R squared 0.945): > 50 µM | EC50 (dengue virus type 2; Vero C1008): > 50 µM | EC90 (dengue virus type 2; Vero C1008, Maximum measured 128.94 %, Minimum measured 80.48 %): > 50 µM

O=C(Nc1ccc2c(c1)CNC2)c1cccc2[nH]c(=O)[nH]c12
EC50 (Zika virus; Vero C1008): > 50 µM | EC90 (Zika virus; Vero C1008, Maximum measured 11.079 %, Minimum measured -6.229 %): > 50 µM | EC50 (dengue virus type 2; Vero C1008): > 12.5 µM | EC90 (dengue virus type 2; Vero C1008, Baseline response 0 %, Hill slope 0.241, Maximum measured 94.031 %, Maximum response 100 %, Minimum measured 72.295 %, R squared 0.287): > 12.5 µM

O=C(Nc1ccc2c(c1)CNC2)c1cccc2nc(O)ccc12
EC50 (Zika virus; Vero C1008): > 50 µM | EC90 (Zika virus; Vero C1008, Maximum measured -4.519 %, Minimum measured -18.451 %): > 50 µM | EC50 (dengue virus type 2; Vero C1008): > 50 µM | EC90 (dengue virus type 2; Vero C1008, Maximum measured 128.112 %, Minimum measured 90.404 %): > 50 µM

O=C1Cc2cc(C(=O)Nc3ccc4c(c3)CNC4)ccc2N1
EC50 (Zika virus; Vero C1008): > 50 µM | EC90 (Zika virus; Vero C1008, Maximum measured 9.003 %, Minimum measured -9.167 %): > 50 µM | EC90 (Zika virus; Vero C1008, Baseline response 0 %, Hill slope 1.599, Maximum measured 7.523 %, Maximum response 100 %, Minimum measured -2.208 %, R squared 0.547): > 50 µM | EC50 (dengue virus type 2; Vero C1008): > 50 µM | EC90 (dengue virus type 2; Vero C1008, Maximum measured 132.031 %, Minimum measured 88.326 %): > 50 µM | EC90 (dengue virus type 2; Vero C1008, Maximum measured 147.509 %, Minimum measured 105.326 %): > 50 µM | EC90 (dengue virus type 2; Vero C1008, Maximum measured 183.11 %, Minimum measured 101.645 %): > 50 µM

O=C(NCc1cccnc1)[C@H](Nc1ccc2c(c1)CNC2)c1cc(Cl)cc2[nH]ncc12
EC50 (Zika virus; Vero C1008): > 50 µM | EC90 (Zika virus; Vero C1008, Maximum measured -0.377 %, Minimum measured -17.936 %): > 50 µM | EC50 (dengue virus type 2; Vero C1008): > 50 µM | EC90 (dengue virus type 2; Vero C1008, Maximum measured 132.553 %, Minimum measured 89.084 %): > 50 µM

O=C(Nc1ccc2c(c1)CNC2)c1cccc2cn[nH]c12
EC50 (Zika virus; Vero C1008): > 50 µM | EC90 (Zika virus; Vero C1008, Baseline response 0 %, Hill slope 0.311, Maximum measured 17.727 %, Maximum response 100 %, Minimum measured -4.778 %, R squared 0.076): > 50 µM | EC50 (dengue virus type 2; Vero C1008): 46.1 µM | EC90 (dengue virus type 2; Vero C1008, Baseline response 0 %, Hill slope -1.364, Maximum measured 96.577 %, Maximum response 100 %, Minimum measured 45.147 %, R squared 0.579): > 50 µM

O=C(Nc1cc2c(cc1Br)CNC2)c1cc(F)cc2[nH]ncc12
EC50 (Zika virus; Vero C1008): 0.721 µM | EC90 (Zika virus; Vero C1008, Baseline response 0 %, EC90 CI (lower) 0.74 uM, EC90 CI (upper) 4.973 uM, Hill slope 2.246, Maximum measured 124.778 %, Maximum response 100 %, Minimum measured 29.701 %, R squared 0.756): 1.92 µM | EC50 (dengue virus type 2; Vero C1008): > 25 µM | EC90 (dengue virus type 2; Vero C1008, Baseline response 0 %, Hill slope -2.027, Maximum measured 102.892 %, Maximum response 100 %, Minimum measured 55.622 %, R squared 0.83): > 25 µM

O=C(Nc1ccc2c(c1)CNC2)c1cc(F)cc(-c2cnc(C3CC3)s2)c1
EC50 (Zika virus; Vero C1008): 5.37 µM | EC90 (Zika virus; Vero C1008, Baseline response 0 %, Hill slope 4.772, Maximum measured 67.326 %, Maximum response 100 %, Minimum measured 1.512 %, R squared 0.988): > 6.25 µM | EC50 (dengue virus type 2; Vero C1008): 11.6 µM | EC90 (dengue virus type 2; Vero C1008, Baseline response 0 %, Hill slope -1.802, Maximum measured 130.062 %, Maximum response 100 %, Minimum measured 44.88 %, R squared 0.382): > 12.5 µM

O=C(Nc1ccc2c(c1)CNC2)c1cc(Cl)cc2ccccc12
EC50 (Zika virus; Vero C1008): > 50 µM | EC90 (Zika virus; Vero C1008, Baseline response 0 %, Hill slope -0.363, Maximum measured 9.094 %, Maximum response 100 %, Minimum measured -16.765 %, R squared 0.057): > 50 µM | EC50 (dengue virus type 2; Vero C1008): > 50 µM | EC90 (dengue virus type 2; Vero C1008, Baseline response 0 %, Hill slope 0.531, Maximum measured 139.444 %, Maximum response 100 %, Minimum measured 57.429 %, R squared 0.178): > 50 µM

O=C(Nc1ccc2c(c1)CNC2)c1cc(Cl)cc2c1NCCC2
EC50 (Zika virus; Vero C1008): > 50 µM | EC90 (Zika virus; Vero C1008, Maximum measured 8.781 %, Minimum measured -16.872 %): > 50 µM | EC50 (dengue virus type 2; Vero C1008): > 50 µM | EC90 (dengue virus type 2; Vero C1008, Baseline response 0 %, Hill slope 0.298, Maximum measured 134.107 %, Maximum response 100 %, Minimum measured 52.01 %, R squared 0.047): > 50 µM

Source: ChEMBL document CHEMBL5661943, “ASAP - In vitro antiviral effect” (2024)
